According to PubChem BioAssay (NCI):
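In this assay, cells in 96-well plates receive the compound at five concentrations for 48 hours. Endpoints are linearly interpolated between the surrounding concentrations. The concentration for full growth arrest is given as TGI.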

Legend:
Assay in all cases: NCI-60 cell line screen, 48 h
[1] = tested on: 786-0 renal
[2] = tested on: A498 renal
[3] = tested on: A549 NSCLC
[4] = tested on: ACHN renal
[5] = tested on: CAKI-1 renal
[6] = tested on: CCRF-CEM leukemia
[7] = tested on: COLO 205 colon
[8] = tested on: DLD-1 colon
[9] = tested on: DMS 114 small cell lung
[10] = tested on: EKVX NSCLC
[11] = tested on: HCC-2998 colon
[12] = tested on: HCT-116 colon
[13] = tested on: HL-60(TB) leukemia
[14] = tested on: HOP-62 NSCLC
[15] = tested on: HOP-92 NSCLC
[16] = tested on: HT29 colon
[17] = tested on: IGROV1 ovarian
[18] = tested on: K-562 leukemia
[19] = tested on: KM12 colon
[20] = tested on: KM20L2 colon
[21] = tested on: LOX IMVI melanoma
[22] = tested on: LXFL 529 NSCLC
[23] = tested on: M14 melanoma
[24] = tested on: M19-MEL melanoma
[25] = tested on: MALME-3M melanoma
[26] = tested on: MOLT-4 leukemia
[27] = tested on: NCI-H226 lung
[28] = tested on: NCI-H23 lung
[29] = tested on: NCI-H460 lung
[30] = tested on: NCI-H522 lung
[31] = tested on: OVCAR-3 ovarian
[32] = tested on: OVCAR-4 ovarian
[33] = tested on: OVCAR-5 ovarian
[34] = tested on: OVCAR-8 ovarian
[35] = tested on: RPMI-8226 leukemia
[36] = tested on: RXF 393 renal
[37] = tested on: SF-268 CNS
[38] = tested on: SF-295 CNS
[39] = tested on: SF-539 CNS
[40] = tested on: SK-MEL-2 melanoma
[41] = tested on: SK-MEL-28 melanoma
[42] = tested on: SK-MEL-5 melanoma
[43] = tested on: SK-OV-3 ovarian
[44] = tested on: SN12C renal
[45] = tested on: SNB-19 CNS
[46] = tested on: SNB-75 CNS
[47] = tested on: SW-620 colon
[48] = tested on: TK-10 renal
[49] = tested on: U251 CNS
[50] = tested on: UACC-257 melanoma
[51] = tested on: UO-31 renal
[52] = tested on: XF 498 CNS

CCc1cccc(CC)c1NC(=O)C1=C(C)NC(C)=C(C(=O)Nc2c(CC)cccc2CC)C1c1ccc([N+](=O)[O-])cc1
TGI [1]: 29.2 µM | TGI [2]: 64 µM | TGI [3]: > 100 µM | TGI [4]: > 100 µM | TGI [5]: > 100 µM | TGI [6]: 45.8 µM | TGI [7]: 54.5 µM | TGI [8]: > 100 µM | TGI [9]: 52.4 µM | TGI [10]: 78.3 µM | TGI [11]: > 100 µM | TGI [12]: 46.4 µM | TGI [13]: 48.7 µM | TGI [14]: > 100 µM | TGI [15]: 39.6 µM | TGI [16]: 40 µM | TGI [17]: 52.4 µM | TGI [18]: 93.5 µM | TGI [19]: 48.8 µM | TGI [20]: > 100 µM | TGI [21]: > 100 µM | TGI [22]: 33.1 µM | TGI [23]: 42.5 µM | TGI [24]: 69.2 µM | TGI [25]: 46.8 µM | TGI [26]: 43.3 µM | TGI [27]: > 100 µM | TGI [28]: > 100 µM | TGI [29]: 45 µM | TGI [30]: 40.2 µM | TGI [31]: 96 µM | TGI [32]: 33.8 µM | TGI [33]: > 100 µM | TGI [34]: 64.3 µM | TGI [35]: 37.4 µM | TGI [36]: 77.6 µM | TGI [37]: > 100 µM | TGI [38]: 38.6 µM | TGI [39]: 39.8 µM | TGI [40]: 65.3 µM | TGI [41]: 39.9 µM | TGI [42]: 33 µM | TGI [43]: 96.4 µM | TGI [44]: > 100 µM | TGI [45]: > 100 µM | TGI [46]: > 100 µM | TGI [47]: 59.1 µM | TGI [48]: 82.5 µM | TGI [49]: > 100 µM | TGI [50]: 53.1 µM | TGI [51]: > 100 µM | TGI [52]: 39.5 µM
